Reference: ChEMBL document CHEMBL4052622, “Geldanamycin-inspired compounds induce direct trans-differentiation of human mesenchymal stem cells to neurons” (Eur J Med Chem, 2017)
Active and inactive are the calls of the source. The rule behind the calls is not given here.

Key:
Assay type in all cases: functional, cell-based
MSC [1] = test: Induction of differentiation of human umbilical cord tissue-derived MSC to neurons assessed as upregulation of nestin levels at 10 uM after 11 days by End PCR analysis
MSC [2] = test: Induction of differentiation of human umbilical cord tissue-derived MSC to neurons assessed as upregulation of agrin levels at 10 uM after 11 days by End PCR analysis
MSC [3] = test: Induction of differentiation of human umbilical cord tissue-derived MSC to neurons assessed as upregulation of RTN4 levels at 10 uM after 11 days by End PCR analysis
MSC [4] = test: Induction of differentiation of human umbilical cord tissue-derived MSC to neurons assessed as phenotypic changes in cell at 10 uM after 11 days by End PCR analysis

SMILES	Activity (MSC [1])	Activity (MSC [2])	Activity (MSC [3])	Activity (MSC [4])
CO[C@@H](C[C@H](C)CO)[C@H](O)[C@@H](C)C(=O)N1C(=O)OC[C@H]1Cc1ccccc1	Active	Active	Active	Active
CO[C@H]1[C@@H](OC)C[C@H](C)Cn2cc(nn2)COC(=O)/C(C)=C/C=C\[C@H](OC)[C@H](CO[Si](C)(C)C(C)(C)C)OC(=O)[C@@H]1C	Active	Active	Active	
CO[C@H]1[C@@H](OC)C[C@H](C)Cn2cc(nn2)COC(=O)/C(C)=C/CC[C@H](OC)[C@H](CO[Si](C)(C)C(C)(C)C)OC(=O)[C@@H]1C	Active	Active	Active	
CO[C@@H]([C@H](C[C@H](C)CN=[N+]=[N-])OC)[C@@H](C)C(=O)N1C(=O)OC[C@H]1Cc1ccccc1	inactive	Active	Active	
CO[C@H]1[C@@H](OC)C[C@H](C)Cn2cc(nn2)COC(=O)/C(C)=C/CC[C@H](OC)[C@H](CO)OC(=O)[C@@H]1C	Active	Active	Active	Active
